Measurements as given in ChEMBL document CHEMBL1201862, “PubChem BioAssay data set” (2004).
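Grown in 96-well plates, cells were treated for 48 hours with each compound at five concentrations. Insufficient inhibition: endpoint recorded as highest concentration tested. GI50: concentration for 50% inhibition of growth.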 Calls of active or inactive are those of the source. Rule as the data show it: active = GI50 up to about 1.1 µM and inactive = higher.

Columns and labels:
Test in all cases: NCI-60 cell line screen, 48 h
[1] = tested on: CCRF-CEM
[2] = tested on: COLO 205
[3] = tested on: EKVX
[4] = tested on: HCT-116
[5] = tested on: HCT-15
[6] = tested on: HOP-92
[7] = tested on: K562
[8] = tested on: KM12
[9] = tested on: M14
[10] = tested on: MOLT-4
[11] = tested on: NCI-H460
[12] = tested on: NCI-H522
[13] = tested on: OVCAR-5
[14] = tested on: RPMI-8226
[15] = tested on: SF-539
[16] = tested on: SK-MEL-5
[17] = tested on: SNB-19
[18] = tested on: SNB-75
[19] = tested on: SW-620
[20] = tested on: T47D

Structure (SMILES)	GI50 [1]	GI50 [2]	GI50 [3]	GI50 [4]	GI50 [5]	GI50 [6]	GI50 [7]	GI50 [8]	GI50 [9]	GI50 [10]	GI50 [11]	GI50 [12]	GI50 [13]	GI50 [14]	GI50 [15]	GI50 [16]	GI50 [17]	GI50 [18]	GI50 [19]	GI50 [20]
O=c1cccc(C2CC(CO)C3CCCCN3C2)[nH]1 (stereo not given)	> 100 µM (inactive)	> 100 µM (inactive)	> 100 µM (inactive)	> 100 µM (inactive)	> 100 µM	> 100 µM (inactive)	> 100 µM (inactive)	> 100 µM (inactive)	> 100 µM (inactive)	> 100 µM (inactive)	> 100 µM (inactive)	> 100 µM (inactive)	> 100 µM (inactive)	> 100 µM (inactive)	> 100 µM (inactive)	> 100 µM (inactive)	> 100 µM (inactive)	86.9 µM (inactive)	> 100 µM (inactive)	> 100 µM (inactive)
CCOC(=O)/C=C(\C(=O)OCC)n1ccc(=O)[nH]c1=O	2.16 µM (inactive)	2.67 µM (inactive)	16 µM (inactive)	6.31 µM (inactive)	6.27 µM	2.55 µM (inactive)	4.38 µM (inactive)	17.9 µM (inactive)	16.5 µM (inactive)	3.44 µM (inactive)	21.7 µM (inactive)	0.684 µM (active)	19.7 µM (inactive)	13.1 µM (inactive)	24.2 µM (inactive)	24.7 µM (inactive)	52.2 µM (inactive)	17.1 µM (inactive)	2.64 µM (inactive)	6.59 µM (inactive)
CCO/C=C(\C(=O)OC)S(=O)(=O)c1ccc(C)cc1	> 100 µM (inactive)	> 100 µM (inactive)	> 100 µM (inactive)	> 100 µM (inactive)	> 100 µM	> 100 µM (inactive)	> 100 µM (inactive)	> 100 µM (inactive)	> 100 µM (inactive)	> 100 µM (inactive)	> 100 µM (inactive)	> 100 µM (inactive)	> 100 µM (inactive)	> 100 µM (inactive)	> 100 µM (inactive)	> 100 µM (inactive)	> 100 µM (inactive)	> 100 µM (inactive)	> 100 µM (inactive)	> 100 µM (inactive)
O=S(=O)(CC(Cl)c1ccccc1)c1nc2ccccc2s1 (stereo not given)	1.7 µM (inactive)	7.93 µM (inactive)	15.8 µM (inactive)	9.86 µM (inactive)	8.02 µM	2.88 µM (inactive)	2.81 µM (inactive)	17.2 µM (inactive)	2.29 µM (inactive)	2.81 µM (inactive)	19.7 µM (inactive)	1.85 µM (inactive)	13.7 µM (inactive)	3.35 µM (inactive)	10.2 µM (inactive)	4.01 µM (inactive)	17.8 µM (inactive)	14.5 µM (inactive)	5.2 µM (inactive)	13.2 µM (inactive)
CSC(=S)N(C)C [CYSTOGON]	> 100 µM (inactive)	> 100 µM (inactive)	> 100 µM (inactive)	> 100 µM (inactive)	> 100 µM	> 100 µM (inactive)	> 100 µM (inactive)	> 100 µM (inactive)	> 100 µM (inactive)	> 100 µM (inactive)	> 100 µM (inactive)	> 100 µM (inactive)	> 100 µM (inactive)	> 100 µM (inactive)	> 100 µM (inactive)	> 100 µM (inactive)	> 100 µM (inactive)	80 µM (inactive)	> 100 µM (inactive)	> 100 µM (inactive)
CC[C@H]1CN2CCc3cc(OC)c(OC)cc3[C@@H]2C[C@@H]1C[C@H]1NCCc2c1[nH]c1ccc(O)cc21 [TUBULOSINE]	< 0.01 µM (active)	< 0.01 µM (active)	0.0294 µM (active)	0.0102 µM (active)	0.384 µM	0.0105 µM (active)	< 0.013 µM (active)	0.0246 µM (active)	< 0.0125 µM (active)	< 0.01 µM (active)	0.0102 µM (active)	< 0.01 µM (active)	0.0153 µM (active)	< 0.0133 µM (active)	0.0164 µM (active)	0.0135 µM (active)	< 0.01 µM (active)	< 0.01 µM (active)	< 0.0119 µM (active)	< 0.0106 µM (active)
CN(CCc1ccc(Br)cc1)CCN1CCCCC1	16.4 µM (inactive)	16.3 µM (inactive)	> 100 µM (inactive)	17.7 µM (inactive)	60.5 µM	17.7 µM (inactive)	15.1 µM (inactive)	21.1 µM (inactive)	22.8 µM (inactive)	31 µM (inactive)	37.9 µM (inactive)	21.6 µM (inactive)	41 µM (inactive)	62.5 µM (inactive)	27.3 µM (inactive)	14.9 µM (inactive)	> 100 µM (inactive)	22.3 µM (inactive)	33.5 µM (inactive)	39.7 µM (inactive)
C=CC1(c2ccc(OC)cc2)OCCCO1	> 100 µM (inactive)	> 100 µM (inactive)	15 µM (inactive)	> 100 µM (inactive)	> 100 µM	> 100 µM (inactive)	> 100 µM (inactive)	> 100 µM (inactive)	> 100 µM (inactive)	> 100 µM (inactive)	> 100 µM (inactive)	> 100 µM (inactive)	> 100 µM (inactive)	> 100 µM (inactive)	> 100 µM (inactive)	> 100 µM (inactive)	> 100 µM (inactive)	> 100 µM (inactive)	> 100 µM (inactive)	> 100 µM (inactive)
O=C(O)c1c(-c2c3ccc(=O)cc-3oc3cc(O)ccc23)cc2ccccc2c1-c1ccccc1	> 20.6 µM (inactive)	> 100 µM (inactive)	> 100 µM (inactive)	> 100 µM (inactive)	> 100 µM	> 100 µM (inactive)	4.51 µM (inactive)	> 100 µM (inactive)	> 100 µM (inactive)	4.85 µM (inactive)	> 66.4 µM (inactive)	> 100 µM (inactive)	> 100 µM (inactive)	> 100 µM (inactive)	> 100 µM (inactive)	> 100 µM (inactive)	> 100 µM (inactive)	41.5 µM (inactive)	> 100 µM (inactive)	> 93.1 µM (inactive)
CC(=O)OCC1OC(OC2CC3C(C)(C)C(=O)CC[C@]3(C)C3CC[C@]45C[C@]4(CCC5[C@@H](C)CC(O)C(O)C(C)(C)O)[C@]23C)C(O)C(O)C1O (stereo not given in full)	4.13 µM (inactive)	5.85 µM (inactive)	16.3 µM (inactive)	7.1 µM (inactive)	17.6 µM	3.18 µM (inactive)	5.52 µM (inactive)	6.43 µM (inactive)	10.3 µM (inactive)	3.71 µM (inactive)	13.6 µM (inactive)	10.6 µM (inactive)	16.7 µM (inactive)	3.56 µM (inactive)	15.3 µM (inactive)	7.66 µM (inactive)	11.3 µM (inactive)	5.35 µM (inactive)	13.2 µM (inactive)	5.68 µM (inactive)
